Source: US4512986A, “Progrestationally active steroids” (priority 1983, dated 1985)
“And” between values parts separate entries of the source, which are not always exact repeats. Equal entries are not always repeated. “Also recorded” adds a separate entry of the source.

Key:
[1] = biological target: T1, Cytosol Androgen Receptor of the Castrate Adult Rat Ventral Prostate (Rattus norvegicus, UniProt P15207); assay: Relative binding affinity for androgen receptor (competition with 3H-dihydrotestosterone); parameters: species or system rat (Charles River CD)
T1 construct: Several ventral prostate glands pooled for each assay; tissue Charles River (animals, strain CD); host or cells: ventral prostate cytosol of castrated adult male rats
T1 sequence (P15207 1-902): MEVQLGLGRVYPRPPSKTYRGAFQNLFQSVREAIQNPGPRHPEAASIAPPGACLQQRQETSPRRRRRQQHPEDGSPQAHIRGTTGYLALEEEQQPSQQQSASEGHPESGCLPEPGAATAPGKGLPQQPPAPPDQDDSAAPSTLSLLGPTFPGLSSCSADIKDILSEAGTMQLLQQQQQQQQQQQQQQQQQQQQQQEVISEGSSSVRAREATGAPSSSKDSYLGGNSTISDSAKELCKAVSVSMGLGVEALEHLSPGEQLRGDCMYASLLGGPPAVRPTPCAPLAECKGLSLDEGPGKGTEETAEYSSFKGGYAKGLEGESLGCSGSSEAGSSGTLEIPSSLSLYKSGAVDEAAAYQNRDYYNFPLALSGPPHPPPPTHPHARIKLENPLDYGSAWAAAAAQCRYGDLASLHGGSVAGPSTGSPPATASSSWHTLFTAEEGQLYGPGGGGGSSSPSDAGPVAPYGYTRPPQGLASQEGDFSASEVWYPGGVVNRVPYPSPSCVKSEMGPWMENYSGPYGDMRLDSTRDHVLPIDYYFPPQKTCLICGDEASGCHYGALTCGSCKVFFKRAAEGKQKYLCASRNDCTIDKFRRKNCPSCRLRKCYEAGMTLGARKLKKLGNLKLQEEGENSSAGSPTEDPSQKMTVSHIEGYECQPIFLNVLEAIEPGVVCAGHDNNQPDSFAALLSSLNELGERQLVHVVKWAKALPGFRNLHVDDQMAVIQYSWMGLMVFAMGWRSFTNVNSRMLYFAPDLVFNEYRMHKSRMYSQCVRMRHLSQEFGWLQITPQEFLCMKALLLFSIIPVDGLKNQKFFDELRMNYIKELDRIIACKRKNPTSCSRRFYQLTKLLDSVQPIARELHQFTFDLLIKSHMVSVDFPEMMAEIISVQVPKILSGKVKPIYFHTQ
Method: The specific conditions, reagents, etc. used to derive the data from Table 2 are as follows:
Animal Species. Adult male rat (Charles River CD).
Pretreatment. Castration 17-24 hour prior to sacrifice.
Tissue. Ventral prostate. Amount of tissue: 0.4 g/rat. Several ventral prostate glands pooled for each assay.
Buffer. 0.05M Tris HCl, 0.05M Trisbase; 1 mM EDTA; 0.15 mM Dithiothreitol.
Homogenization. Three five-second bursts with 30 second cooling periods between bursts using Brinkman Polytron Pt. 10 (3.5 setting).
Temperature. 0°-4° C. all steps.
Centrifugation. 45,000 rpm for 1 hr, 50 Ti rotor, Beckman L8-80 ultracentrifuge.
Radiolabel. 1,2-^3 H-Dihydrotesterone-25,00 cpm/0.1 ml.
Amounts of Addition. 0.1 ml cytosol, 0.1 ml ^3 H-dihydrotestosterone, 0.1 ml test compound, 0.3 ml buffer.
Incubation. 16-18 hours at 0°-4° C.
Concentrations. 1×10^-10 M to 1×10^-5 (7 concentrations).
Method. Charcoal adsorption method used to remove unbound radioactivity. Five-tenths ml dextran-coated charcoal (0.5% Norit A and 0.05% dextran T-70) added to all except total radioactivity tubes (0.5 ml buffer added), tubes vortexed […], allowed to sit 10 min and centrifuged 10 min at 2000 rpm in Beckman TJ-6 centrifuge at 0°-4° C.

[2] = tested on: uterine endometrium of estrone-primed immature rabbits; assay: Clauberg assay (progestational activity, McPhail); format: in vivo, rabbit (New Zealand White); settings: for McPhail Index (0-4) (X ± S.D.): 0 none, 4 maximal
[3] = tested on: cycling rats; assay: Blockade of ovulation in rats; format: in vivo, rat (Charles River CD); settings: for No. Rats Ovulated (of rats treated) / No. of Oviductal Eggs in Rats that Ovulated (X ± S.D.): single sc
Description: The treated rats were sacrificed on the morning of expected estrus and eggs, if present, were flushed from the oviducts and counted. | *This assay employs cycling Charles River CD rats. For methods refer to | Beattie, C. W. and A. Corbin, Endocrinology 97, 885, 1975. […] | diestrus. Rats were sacrificed 43 to 44 hr later on the morning of | expected estrus. Eggs, if present, were flushed from oviducts and counted | under a stereomicroscope.

[4] = tested on: estrous cycle of rats; assay: Suppression of estrous cycles in rats; format: in vivo, rat; settings: sc, 10 days
Method: A control group was treated in parallel with 0.2 ml peanut oil per day. Treatment commenced at metestrus and vaginal smears were taken each morning during the 10-day treatment period and for 16 to 18 days thereafter.

C#C[C@]1(C(C)=O)CC[C@H]2[C@@H]3CCC4=CC(=O)CC[C@]4(C)[C@H]3CC[C@@]21C [17α-Ethynylprogesterone, 17α-ethynylprogesterone]
RBA ([1]; 16-18 hours at 0°-4° C., 5α-dihydrotestosterone = 100): 0.09%
androgen receptor binding affinity / androgenicity, in words ([1]; male rat androgenic receptors): extremely low binding affinity for male rat androgenic receptors
progestational potency relative to subcutaneous progesterone, in words ([2]; compound given orally, progesterone sc): progestational activity equivalent to subcutaneous progesterone
progestational potency relative to progesterone (sc) ([2]; compound given sc): 13 times
Uterine Weight (X ± S.D.) ([2]; oral, 10 μg/rabbit daily): 0.94 ± 0.09 g
McPhail Index (0-4) (X ± S.D.) ([2]; oral, 10 μg/rabbit daily): 0.08 ± 0.11
Uterine Weight (X ± S.D.) ([2]; oral, 20 μg/rabbit daily): 0.98 ± 0.18 g
McPhail Index (0-4) (X ± S.D.) ([2]; oral, 20 μg/rabbit daily): 0.04 ± 0.06
Uterine Weight (X ± S.D.) ([2]; oral, 50 μg/rabbit daily): 0.86 ± 0.02 g
McPhail Index (0-4) (X ± S.D.) ([2]; oral, 50 μg/rabbit daily): 0.00 ± 0.00
Uterine Weight (X ± S.D.) ([2]; oral, 100 μg/rabbit daily): 1.79 ± 0.63 g and 1.13 ± 0.24 g
progestational response, in words ([2]; oral, 100 μg/rabbit/day): inactive; also recorded: near the oral threshold dose
Uterine Weight (X ± S.D.) ([2]; oral, 200 μg/rabbit daily): 1.67 ± 0.33 g
McPhail Index (0-4) (X ± S.D.) ([2]; oral, 200 μg/rabbit daily): 1.40 ± 1.50
Uterine Weight (X ± S.D.) ([2]; oral, 400 μg/rabbit daily): 1.70 ± 0.50 g
McPhail Index (0-4) (X ± S.D.) ([2]; oral, 400 μg/rabbit daily): 1.80 ± 1.70
progestational response, in words ([2]; oral, 200 and 400 μg/rabbit/day): partial progestational responses
Uterine Weight (X ± S.D.) ([2]; sc, 2.5 μg/rabbit daily): 0.90 ± 0.06 g
McPhail Index (0-4) (X ± S.D.) ([2]; sc, 2.5 μg/rabbit daily): 0.17 ± 0.23
progestational response, in words ([2]; sc, 2.5 μg/rabbit/day): inactive
Uterine Weight (X ± S.D.) ([2]; sc, 5 μg/rabbit daily): 1.63 ± 0.45 g
McPhail Index (0-4) (X ± S.D.) ([2]; sc, 5 μg/rabbit daily): 1.50 ± 0.54
progestational response, in words ([2]; sc, 5 μg/rabbit/day): partial progestational response
Uterine Weight (X ± S.D.) ([2]; sc, 10 μg/rabbit daily): 3.23 ± 0.83 g
McPhail Index (0-4) (X ± S.D.) ([2]; sc, 10 μg/rabbit daily): 3.83 ± 0.12
Uterine Weight (X ± S.D.) ([2]; sc, 20 μg/rabbit daily): 4.41 ± 0.33 g
McPhail Index (0-4) (X ± S.D.) ([2]; sc, 20 μg/rabbit daily): 4.00 ± 0.00
Uterine Weight (X ± S.D.) ([2]; sc, 50 μg/rabbit daily): 5.54 ± 0.18 g
McPhail Index (0-4) (X ± S.D.) ([2]; sc, 50 μg/rabbit daily): 4.0 ± 0.00
Uterine Weight (X ± S.D.) ([2]; sc, 100 μg/rabbit daily): 4.19 ± 0.22 g
McPhail Index (0-4) (X ± S.D.) ([2]; sc, 100 μg/rabbit daily): 4.0 ± 0.00
Uterine Weight (X ± S.D.) ([2]; sc, 200 μg/rabbit daily): 4.99 ± 0.89 g
McPhail Index (0-4) (X ± S.D.) ([2]; sc, 200 μg/rabbit daily): 4.0 ± 0.00
Uterine Weight (X ± S.D.) ([2]; sc, 400 μg/rabbit daily): 5.90 ± 1.75 g
McPhail Index (0-4) (X ± S.D.) ([2]; sc, 400 μg/rabbit daily): 4.0 ± 0.00
progestational response, in words ([2]; sc, 10 and 20 μg/rabbit/day): maximal progestational responses
progestational response, in words ([2]; sc, 50, 100, 200 and 400 μg/rabbit/day): full progestational responses
ovulation, in words ([3]; 500 μg progesterone, 100, 250 or 500 μg 17α-ethynylprogesterone): ovulation was blocked in most rats
ovulation, in words ([3]; 100 or 250 μg progesterone, 50 μg 17α-ethynylprogesterone): ovulated in a normal fashion
potency in blocking ovulation relative to (±)-norgestrel, in words ([3]; comparison with literature): equipotent with (±)-norgestrel
potency in blocking ovulation relative to progesterone, in words ([3]; sc): about five times as potent as progesterone
No. Rats Ovulated (of rats treated) ([3]; 50 μg/rat): 4/5
No. of Oviductal Eggs in Rats that Ovulated (X ± S.D.) ([3]; 50 μg/rat): 10.5 ± 2.1
No. Rats Ovulated (of rats treated) ([3]; 100 μg/rat): 1/5
No. of Oviductal Eggs in Rats that Ovulated (X ± S.D.) ([3]; 100 μg/rat): 3.0
No. Rats Ovulated (of rats treated) ([3]; 250 μg/rat): 1/5
No. of Oviductal Eggs in Rats that Ovulated (X ± S.D.) ([3]; 250 μg/rat): 6.0
No. Rats Ovulated (of rats treated) ([3]; 500 μg/rat): 0/5
No. of Oviductal Eggs in Rats that Ovulated (X ± S.D.) ([3]; 500 μg/rat): 0.0
estrous cycle during treatment, in words ([4]; 50 μg/day): continued regular four-day cycles during treatment
estrous cycle during treatment, in words ([4]; 100 μg/day): estrous cycles were disrupted; also recorded: some degree of follicular development occurred, but that ovulation was inhibited during treatment
estrous cycle during treatment, in words ([4]; 250 μg/day): estrous cycles were disrupted
estrous cycle during treatment, in words ([4]; 500 μg/day): estrous cycles were disrupted; also recorded: follicular development and ovulation were effectively suppressed
